From ChEMBL document CHEMBL5247584, “Design, synthesis and evaluation of fused hybrids with acetylcholinesterase inhibiting and Nrf2 activating functions for Alzheimer's disease” (Eur J Med Chem, 2022)
The source made the active and inactive calls. No cut-off for these calls is given here.

Tests used:
Acetylcholinesterase [1] = biological target: Acetylcholinesterase (Electrophorus electricus, UniProt O42275); assay: Inhibition of electric eel AChE using ATC and BTC iodide as substrate preincubated for 5 mins followed by substrate addition and measured after 2 mins by DTNB reagent based assay
Sequence of Acetylcholinesterase (Electrophorus electricus, UniProt O42275) (O42275 whole entry): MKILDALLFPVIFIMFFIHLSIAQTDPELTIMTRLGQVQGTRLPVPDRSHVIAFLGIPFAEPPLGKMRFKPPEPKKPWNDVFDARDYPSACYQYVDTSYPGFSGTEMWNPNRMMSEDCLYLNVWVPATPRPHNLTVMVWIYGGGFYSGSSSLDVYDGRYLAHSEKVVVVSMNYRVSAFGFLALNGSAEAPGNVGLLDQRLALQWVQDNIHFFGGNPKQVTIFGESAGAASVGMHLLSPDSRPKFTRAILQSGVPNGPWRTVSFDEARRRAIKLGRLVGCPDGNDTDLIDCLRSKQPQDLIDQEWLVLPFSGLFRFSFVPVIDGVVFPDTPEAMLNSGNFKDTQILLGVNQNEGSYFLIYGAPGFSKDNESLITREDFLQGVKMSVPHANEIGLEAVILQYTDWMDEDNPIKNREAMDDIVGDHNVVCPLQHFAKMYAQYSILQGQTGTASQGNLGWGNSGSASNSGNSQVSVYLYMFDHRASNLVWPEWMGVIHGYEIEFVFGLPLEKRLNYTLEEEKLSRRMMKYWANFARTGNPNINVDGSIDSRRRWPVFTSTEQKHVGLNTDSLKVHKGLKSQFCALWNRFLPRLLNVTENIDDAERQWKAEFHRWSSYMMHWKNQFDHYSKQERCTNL

Cholinesterase = Cholinesterase (Equus caballus, UniProt P81908); assay: Inhibition of equine serum BuChE using ATC and BTC iodide as substrate preincubated for 5 mins followed by substrate addition and measured after 2 mins by DTNB reagent based assay
Sequence of Cholinesterase (P81908 whole entry): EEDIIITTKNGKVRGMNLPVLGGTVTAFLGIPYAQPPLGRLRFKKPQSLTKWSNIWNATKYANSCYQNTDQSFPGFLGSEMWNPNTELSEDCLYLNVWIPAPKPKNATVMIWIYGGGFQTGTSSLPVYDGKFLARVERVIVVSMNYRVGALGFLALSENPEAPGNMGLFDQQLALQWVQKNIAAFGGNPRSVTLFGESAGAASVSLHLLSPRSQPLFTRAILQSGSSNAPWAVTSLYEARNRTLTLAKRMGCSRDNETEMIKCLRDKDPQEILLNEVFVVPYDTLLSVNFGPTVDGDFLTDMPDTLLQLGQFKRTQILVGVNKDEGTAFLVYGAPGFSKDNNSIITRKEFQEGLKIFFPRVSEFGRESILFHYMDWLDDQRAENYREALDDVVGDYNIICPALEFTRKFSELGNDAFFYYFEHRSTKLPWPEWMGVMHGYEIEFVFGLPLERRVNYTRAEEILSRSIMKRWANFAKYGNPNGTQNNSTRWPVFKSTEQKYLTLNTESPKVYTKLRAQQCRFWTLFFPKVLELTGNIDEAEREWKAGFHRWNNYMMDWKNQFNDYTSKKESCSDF

HepG2-ARE-C8 [2] = assay: Cytotoxicity against human HepG2-ARE-C8 cells assessed as reduction in cell viability at 5 and 20 uM measured for 24 hrs by MTT assay; format: functional, cell-based
Acetylcholinesterase [3] = biological target: Acetylcholinesterase (Homo sapiens, UniProt P22303); assay: Inhibition of human AChE using ATC and BTC iodide as substrate preincubated for 5 mins followed by substrate addition and measured after 2 mins by DTNB reagent based assay
HepG2-ARE-C8 [4] = assay: Activation of Nrf2-ARE pathway in human HepG2-ARE-C8 cells at 20 uM measured for 24 hrs by ARE-luciferase assay; format: cell-based; details: filed as activator
Mus musculus [5] = assay: Antialzheimer activity against Abeta1-42-induced cognitive impairment ICR mouse model assessed as confuse escape tracks at 10 mg/kg, IG administered for 3 to 14 days and measured after 9 to 14 days in presence of donepezil by Morris water maze test; format: functional, organism-based; details: time 9-14 day
Mus musculus [6] = assay: Antialzheimer activity against Abeta1-42-induced cognitive impairment ICR mouse model assessed as increase in arrival time at 10 mg/kg, IG administered for 3 to 14 days and measured after 9 to 14 days in presence of donepezil by Morris water maze test; format: functional, organism-based; details: time 9-14 day
Mus musculus [7] = assay: Antialzheimer activity against Abeta1-42-induced cognitive impairment ICR mouse model assessed as increase in escape latency at 10 mg/kg, IG administered for 3 to 14 days and measured after 9 to 14 days in presence of donepezil by Morris water maze test; format: functional, organism-based; details: time 9-14 day
Mus musculus [8] = assay: Cognitive enhancing effect in amyloid beta (1 to 42)-induced ICR mouse model assessed as increase in ACh level at 20 mg/kg […] in presence of donepezil by ELISA; format: functional, organism-based
Mus musculus [9] = assay: Antialzheimer activity against Abeta1-42-induced cognitive impairment ICR mouse model assessed as increase in distance to reach target at 10 mg/kg, IG administered for 3 to 14 days and measured after 9 to 14 days in presence of donepezil by Morris water maze test; format: functional, organism-based; details: time 9-14 day
[10] = compound: Cc1ccc(-c2noc(-c3cccc(OCC4CCN(Cc5cccc(F)c5)CC4)c3)n2)cn1; assay: Non-competitive inhibition of human AChE assessed as decrease in substrate Vmax with constant Km by Lineweaver-Burk plot analysis

Molecule	IC50 (Acetylcholinesterase [1])	IC50 (Cholinesterase)	Activity (HepG2-ARE-C8 [2])	further results
Cc1ccc(-c2noc(-c3cccc(OCC4CCN(Cc5cccc(Cl)c5)CC4)c3)n2)cn1	2.29 µM	> 100 µM	inactive	–
Cc1ccc(-c2noc(-c3cccc(OCC4CCN(Cc5ccco5)CC4)c3)n2)cn1	2.53 µM	> 100 µM	inactive	–
Cc1ccc(-c2noc(-c3cccc(OCC4CCN(Cc5ccc(F)c(F)c5)CC4)c3)n2)cn1	13.9 µM	1.66 µM	inactive	–
Cc1ccc(-c2noc(-c3cccc(OCC4CCN(Cc5ccccc5F)CC4)c3)n2)cn1	0.1 µM	15.5 µM	inactive	IC50 (Acetylcholinesterase [3]): 0.29 µM
Cc1ccc(-c2noc(-c3cccc(OCC4CCN(C(=O)c5ccccc5)CC4)c3)n2)cn1	59.4 µM	> 100 µM	inactive	–
Cc1ccc(-c2noc(-c3cccc(OCC4CCN(Cc5cccnc5)CC4)c3)n2)cn1	1.28 µM	3.93 µM	inactive	–
Cc1ccc(-c2noc(-c3cccc(OCC4CCN(Cc5ccncc5)CC4)c3)n2)cn1	16.8 µM	> 100 µM	inactive	–
Cc1ccc(-c2noc(-c3cccc(OCC4CCN(Cc5ccc(F)cc5)CC4)c3)n2)cn1	0.56 µM	1.36 µM	inactive	IC50 (Acetylcholinesterase [3]): 2.99 µM
Cc1ccc(-c2noc(-c3cccc(OCC4CCN(Cc5ccc(Br)o5)CC4)c3)n2)cn1	3.18 µM	> 100 µM	inactive	–
Cc1ccc(-c2noc(-c3cccc(OCC4CCN(Cc5ccc(C(C)(C)C)cc5)CC4)c3)n2)cn1	> 100 µM	> 100 µM	inactive	Activity (HepG2-ARE-C8 [4]): Active
Cc1ccc(-c2noc(-c3cccc(OCC4CCN(Cc5ccc(Br)cc5)CC4)c3)n2)cn1	> 100 µM	> 100 µM	inactive	–
Cc1ccc(-c2noc(-c3cccc(OCC4CCCN(C(=O)c5ccccc5)C4)c3)n2)cn1 (configuration not stated)	15.9 µM	13.8 µM	inactive	Activity (HepG2-ARE-C8 [4]): Active
Cc1ccc(-c2noc(-c3cccc(OCC4CCN(Cc5ccc(Cl)o5)CC4)c3)n2)cn1	2 µM	> 100 µM	inactive	–
Cc1ccc(-c2noc(-c3ccc(F)c(F)c3)n2)cn1	–	–	–	Activity (Mus musculus [5]): Active; Activity (Mus musculus [6]): Active; Activity (Mus musculus [7]): Active; Activity (Mus musculus [8]): Active; Activity (Mus musculus [9]): Active
Cc1ccc(-c2noc(-c3cccc(OCC4CCN(Cc5ccc(C)c(C)c5)CC4)c3)n2)cn1	5.64 µM	> 100 µM	inactive	–
Cc1ccc(-c2noc(-c3cccc(OCC4CCN(Cc5ccccn5)CC4)c3)n2)cn1	1.92 µM	5.03 µM	inactive	–
Cc1ccc(-c2noc(-c3cccc(OCC4CCCN(C(=O)c5ccc(F)cc5)C4)c3)n2)cn1 (configuration not stated)	4.37 µM	5.78 µM	inactive	–
Cc1ccc(-c2noc(-c3cccc(OCC4CCN(Cc5ccc(Cl)cc5)CC4)c3)n2)cn1	> 100 µM	> 100 µM	inactive	–
Cc1ccc(-c2noc(-c3cccc(OCC4CCCN(Cc5ccccc5)C4)c3)n2)cn1 (configuration not stated)	6.46 µM	2.78 µM	inactive	–
Cc1ccc(CN2CCC(COc3cccc(-c4nc(-c5ccc(C)nc5)no4)c3)CC2)cc1	> 100 µM	6.34 µM	inactive	–
COc1ccc(CN2CCC(COc3cccc(-c4nc(-c5ccc(C)nc5)no4)c3)CC2)cc1	> 100 µM	> 100 µM	inactive	–
Cc1ccc(-c2noc(-c3cccc(OCC4CCN(Cc5ccc(C#N)cc5)CC4)c3)n2)cn1	71.4 µM	> 100 µM	inactive	–
Cc1ccc(-c2noc(-c3cccc(OCC4CCN(Cc5ccccc5)CC4)c3)n2)cn1	0.29 µM	5.05 µM	inactive	IC50 (Acetylcholinesterase [3]): 0.74 µM
Cc1ccc(-c2noc(-c3cccc(OCC4CCN(C(=O)c5ccc(F)cc5)CC4)c3)n2)cn1	> 100 µM	> 100 µM	inactive	–
Cc1ccc(-c2noc(-c3cccc(OCC4CCCN(Cc5ccccc5F)C4)c3)n2)cn1 (configuration not stated)	8.14 µM	17.6 µM	inactive	–
Cc1ccc(-c2noc(-c3cccc(OCC4CCCN(Cc5ccc(F)cc5)C4)c3)n2)cn1 (configuration not stated)	> 100 µM	4.28 µM	inactive	–
Cc1ccc(-c2noc(-c3cccc(OCC4CCN(Cc5ccc(C(F)(F)F)cc5)CC4)c3)n2)cn1	> 100 µM	> 100 µM	inactive	Activity (HepG2-ARE-C8 [4]): Active
Cc1ccc(CN2CCCC(COc3cccc(-c4nc(-c5ccc(C)nc5)no4)c3)C2)cc1 (configuration not stated)	5.39 µM	> 100 µM	inactive	–
Cc1ccc(-c2noc(-c3cccc(OCC4CCN(Cc5ccccc5Cl)CC4)c3)n2)cn1	0.55 µM	> 100 µM	inactive	IC50 (Acetylcholinesterase [3]): 0.57 µM
Acetylcholinesterase (Homo sapiens), P22303 (protein) MRPPQCLLHTPSLASPLLLLLLWLLGGGVGAEGREDAELLVTVRGGRLRGIRLKTPGGPVSAFLGIPFAEPPMGPRRFLPPEPKQPWSGVVDATTFQSVCYQYVDTLYPGFEGTEMWNPNRELSEDCLYLNVWTPYPRPTSPTPVLVWIYGGGFYSGASSLDVYDGRFLVQAERTVLVSMNYRVGAFGFLALPGSREAPGNVGLLDQRLALQWVQENVAAFGGDPTSVTLFGESAGAASVGMHLLSPPSRGLFHRAVLQSGAPNGPWATVGMGEARRRATQLAHLVGCPPGGTGGNDTELVACLRTRPAQVLVNHEWHVLPQESVFRFSFVPVVDGDFLSDTPEALINAGDFHGLQVLVGVVKDEGSYFLVYGAPGFSKDNESLISRAEFLAGVRVGVPQVSDLAAEAVVLHYTDWLHPEDPARLREALSDVVGDHNVVCPVAQLAGRLAAQGARVYAYVFEHRASTLSWPLWMGVPHGYEIEFIFGIPLDPSRNYTAEEKIFAQRLMRYWANFARTGDPNEPRDPKAPQWPPYTAGAQQYVSLDLRPLEVRRGLRAQACAFWNRFLPKLLSATDTLDEAERQWKAEFHRWSSYMVHWKNQFDHYSKQDRCSDL	–	–	–	Km [10]: 0.233 µM
